Values of other authors in patent US6479045B2, “Vaginal pH buffering for preventing miscarriage and premature labor, by treating or preventing bacterial vaginosis” (Columbia Laboratories, Inc., priority 1999, dated 2002).

System: Bacterial Vaginosis
Details: within one month

Cc1ncc([N+](=O)[O-])n1CCO [metronidazole]
cure rate: approximately 70%
